Test results: ChEMBL document CHEMBL5131397, “Discovery and Optimization of Pyrazole Amides as Inhibitors of ELOVL1” (J Med Chem, 2021)
pIC50: −log10 of the molar value. Activity calls are given as the source filed them. The rule behind the calls is not given here.

Legend:
[1] = system: Mus musculus; assay: Reduction in C26:0/C16:0 LPC level in ABCD1 knock out mouse CNS at 1 to 10 mg/kg, po qd measured after 2 months of dosing by LC-MS/MS analysis; assay type: functional, organism-based; conditions: dose 1-10 mg/kg
[2] = Toxicity in Sprague-Dawley rat assessed as ocular inflammation at 5 mg/kg/day, po administered for 8 weeks by microscopic observation analysis; assay type: organism-based; conditions: in vivo, 1344 h
[3] = Toxicity in Sprague-Dawley rat assessed as ocular epithelial atrophy at 5 mg/kg/day, po administered for 8 weeks by microscopic observation analysis; assay type: organism-based; conditions: in vivo, 1344 h
[4] = Reduction in C26:0/C16:0 LPC level in wild-type Sprague-Dawley rat at 100 mg/kg, po qd treated for 7 days by LC-MS/MS analysis; assay type: functional; set-up: scale not given: the % may be the effect or the level left; conditions: time 7 day
[5] = biological target: T1, Very long chain fatty acid elongase 1 (Homo sapiens) (UniProt Q9BW60); assay: Inhibition of ELOVL-1 in human HEK2936E cells assessed as reduction in C24:0 lysophosphatidyl choline synthesis at 100 nM in presence of 13C-labeled acetate measured after 48 hrs; assay type: cell-based
T1 sequence (whole entry): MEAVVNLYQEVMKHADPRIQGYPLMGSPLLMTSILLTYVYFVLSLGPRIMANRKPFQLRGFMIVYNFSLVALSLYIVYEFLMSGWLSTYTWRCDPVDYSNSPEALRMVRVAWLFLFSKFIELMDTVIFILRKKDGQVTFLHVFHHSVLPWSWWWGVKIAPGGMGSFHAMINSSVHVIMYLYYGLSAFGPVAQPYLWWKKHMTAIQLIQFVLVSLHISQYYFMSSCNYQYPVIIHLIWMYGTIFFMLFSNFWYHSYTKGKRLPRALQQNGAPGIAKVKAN

[6] = system: HepG2; assay: Cytotoxicity against human HepG2 cells assessed as decrease in intracellular ATP levels incubated for 72 hrs by Cell Titer-Glo luminescence assay; assay type: functional; conditions: read-out: TC50 (the source's name)
[7] = biological target: Rho-associated protein kinase 1 (Homo sapiens) (UniProt Q13464); assay: Inhibition of ROCK 1 (unknown origin) at 10 uM
[8] = Tmax in Sprague-Dawley rat at 3 mg/kg, po upto 24 hrs by LC/MS/MS analysis; assay type: ADME, organism-based; conditions: in vivo
[9] = system: Mus musculus; assay: Reduction in C26:0/C16:0 LPC level in normal diet fed ABCD1 knock out mouse blood administered orally qd measured after 14 day by LC-MS/MS analysis; assay type: functional, tissue-based; conditions: route po, DDE = dose-dependent effect
[10] = Reduction in C26:0 LPC level in ABCD1 knock out mouse CNS at 8 mg/kg, po qd measured after 6 months of dosing by LC-MS/MS analysis; assay type: functional; set-up: scale not given: the % may be the effect or the level left; conditions: 4380 h
[11] = Reduction in C26:0 LPC level in wild-type C57BL/6 mouse blood at 2 to 32 mg/kg, po qd for 105 days by LC-MS/MS analysis relative to control; assay type: functional; set-up: scale not given: the % may be the effect or the level left; conditions: dose 2-32 mg/kg, time 105 day
[12] = Toxicity in Sprague-Dawley rat assessed as ulceration at 5 to 50 mg/kg/day, po administered for 2 to 8 weeks; assay type: organism-based; conditions: in vivo, dose lower 5 mg/kg/day, time lower 2 weeks, dose upper 50 mg/kg/day, time upper 8 weeks
[13] = Intrinsic clearance in human hepatocytes assessed per million cells; assay type: ADME, cell-based, Hepatocyte; conditions: read-out: CLH
[14] = Reduction in C26:0 LPC level in ABCD1 knock out mouse blood assessed as fold increase at 0.5 to 32 mg/kg, po qd for 105 days by LC-MS/MS analysis; assay type: functional; conditions: dose 0.5-32 mg/kg, time 105 day
[15] = Reduction in C26:0 LPC level in Cynomolgus monkey plasma at 15 mg/kg, po qd for 13 weeks by LC-MS/MS analysis (reference value: 2.495 ng/ml); assay type: functional, Macaca fascicularis
[16] = biological target: T1, Very long chain fatty acid elongase 1 (Homo sapiens); assay: Inhibition of ELOVL-1 in human HEK2936E cells assessed as reduction in C26:0 lysophosphatidyl choline synthesis at 100 nM in presence of 13C-labeled acetate measured after 48 hrs; assay type: cell-based
[17] = system: HEK-293T; assay: Reduction in C26:0 LPC level in isogenic wild-type human HEK-293T cells with ELOVL-1 expression in presence of 13C-labeled acetate measured after 48 hrs by mass spectroscopy; assay type: functional, cell-based
[18] = system: Mus musculus; assay: Reduction in C24:0/C16:0 LPC level in ABCD1 knock out mouse CNS at 1 to 10 mg/kg, po qd measured after 3 months of dosing by LC-MS/MS analysis; assay type: functional, organism-based; conditions: dose 1-10 mg/kg
[19] = Cytotoxicity against human THLE-2 cells assessed as decrease in intracellular ATP levels incubated for 72 hrs by Cell Titer-Glo luminescence assay; assay type: toxicity, cell-based; conditions: read-out: TC50
[20] = Reduction of C26:0 /C16:0 LPC level in ABCD1 KO mouse blood at 5 mg/kg, po qd for 8 months by LC-MS/MS analysis relative to control; assay type: functional; set-up: scale not given: the % may be the effect or the level left; conditions: 5840 h
[21] = biological target: T2, Very long chain fatty acid elongase 1 (Homo sapiens, UniProt Q9BW60); assay: Inhibition of ELOVL1 in AMN 2 patient-derived fibroblast assessed as reduction of C26:0 VLCFA synthesis incubated for 48 hrs by cellular assay; assay type: cell-based
T2 sequence (Q9BW60 whole entry): T1 sequence (whole entry)

[22] = system: Mus musculus; assay: Reduction in C26:0 LPC level in wild-type C57BL/6 mouse blood administered orally qd for 105 days by LC-MS/MS analysis; assay type: functional, tissue-based; conditions: route po, time 105.0 day, DDE = dose-dependent effect
[23] = biological target: T3, Very long chain fatty acid elongase 7 (Homo sapiens) (UniProt A1L3X0); assay: Inhibition of ELOVL-7 in human HEK2936E cells assessed as increase in C20:0 lipo phosphatidyl choline synthesis at 100 nM in presence of 13C-labeled acetate measured after 48 hrs; assay type: cell-based
T3 sequence (whole entry): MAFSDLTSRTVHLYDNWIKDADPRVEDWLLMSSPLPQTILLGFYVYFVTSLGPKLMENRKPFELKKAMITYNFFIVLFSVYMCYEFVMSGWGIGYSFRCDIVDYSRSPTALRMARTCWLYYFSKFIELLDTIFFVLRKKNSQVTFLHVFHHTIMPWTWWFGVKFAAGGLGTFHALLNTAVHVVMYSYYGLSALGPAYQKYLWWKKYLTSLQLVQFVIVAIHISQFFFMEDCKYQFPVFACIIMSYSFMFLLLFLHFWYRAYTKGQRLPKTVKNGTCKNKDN

[24] = Toxicity in Sprague-Dawley rat assessed as corneal neovascularization at 5 mg/kg/day, po administered for 8 weeks by macroscopic observation analysis; assay type: organism-based; conditions: in vivo, 1344 h
[25] = system: Mus musculus; assay: Reduction in C26:0/C16:0 LPC level in high fat diet fed ABCD1 knock out mouse blood at 1 to 8 mg/kg, po qd measured on day 28 after 7 days of treatment discontinuation by LC-MS/MS analysis; assay type: functional, organism-based; conditions: dose 1-8 mg/kg, time 28.0 day

Rho-associated protein kinase 1 (Homo sapiens), sequence (Q13464 2-1354 limits assumed): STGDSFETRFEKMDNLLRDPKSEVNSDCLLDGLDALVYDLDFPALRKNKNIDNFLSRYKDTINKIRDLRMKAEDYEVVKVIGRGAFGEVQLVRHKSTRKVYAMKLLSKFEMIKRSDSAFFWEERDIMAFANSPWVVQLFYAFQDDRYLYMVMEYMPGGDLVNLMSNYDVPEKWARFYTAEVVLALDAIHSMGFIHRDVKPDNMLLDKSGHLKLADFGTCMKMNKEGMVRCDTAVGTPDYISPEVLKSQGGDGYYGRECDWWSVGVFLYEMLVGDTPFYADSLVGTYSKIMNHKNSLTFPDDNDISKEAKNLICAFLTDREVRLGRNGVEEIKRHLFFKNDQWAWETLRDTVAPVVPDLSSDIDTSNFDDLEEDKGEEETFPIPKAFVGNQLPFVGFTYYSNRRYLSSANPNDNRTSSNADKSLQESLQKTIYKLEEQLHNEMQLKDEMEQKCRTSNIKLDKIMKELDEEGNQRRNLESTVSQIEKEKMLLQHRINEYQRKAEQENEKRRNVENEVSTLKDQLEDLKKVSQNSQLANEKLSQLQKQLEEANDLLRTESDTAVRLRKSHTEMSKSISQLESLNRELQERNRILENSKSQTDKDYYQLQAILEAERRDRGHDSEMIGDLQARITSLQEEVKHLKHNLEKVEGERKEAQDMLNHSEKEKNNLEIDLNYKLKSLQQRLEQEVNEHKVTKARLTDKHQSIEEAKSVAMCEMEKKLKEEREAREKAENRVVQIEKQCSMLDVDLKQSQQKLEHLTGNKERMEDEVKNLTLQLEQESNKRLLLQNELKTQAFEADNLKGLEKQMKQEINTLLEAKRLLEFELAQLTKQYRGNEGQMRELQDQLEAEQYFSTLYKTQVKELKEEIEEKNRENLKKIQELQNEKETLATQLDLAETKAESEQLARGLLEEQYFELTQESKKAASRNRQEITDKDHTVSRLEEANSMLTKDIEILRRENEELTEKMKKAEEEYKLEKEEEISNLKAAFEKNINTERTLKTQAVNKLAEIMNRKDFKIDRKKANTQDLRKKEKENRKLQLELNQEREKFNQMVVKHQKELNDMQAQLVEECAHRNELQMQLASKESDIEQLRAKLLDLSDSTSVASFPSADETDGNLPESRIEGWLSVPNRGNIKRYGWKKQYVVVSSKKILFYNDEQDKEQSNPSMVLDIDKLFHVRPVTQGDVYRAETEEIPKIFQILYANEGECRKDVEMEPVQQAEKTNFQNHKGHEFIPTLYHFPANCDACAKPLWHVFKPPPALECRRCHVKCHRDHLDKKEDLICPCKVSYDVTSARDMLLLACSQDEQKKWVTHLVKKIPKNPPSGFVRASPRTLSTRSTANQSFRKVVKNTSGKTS

O=C(Nc1ccn(-c2ccnc(F)c2)n1)C1(c2ccccc2F)CC1
Activity [1]: Active
Activity [2]: Toxic
Activity [3]: Toxic
Activity [4]: 77%
inhibition [5]: Active
CC50 [6]: > 100 µM
inhibition [7]: > 50%
Tmax [8]: 24 min
Activity [9]: Dde
Activity [10]: 49%
Activity [11]: 67%
Activity [12]: Toxic
hepatocyte CLint [13]: < 4 µL/min/1e6 cells
fold change (FC) [14]: 10
Activity [15]: 0.4475 ng/mL
inhibition [16]: Active
Activity [17]: Active
Activity [18]: Active
CC50 at 72 h [19]: > 100 µM
Activity [20]: 60%
pIC50 [21]: 7.77
Activity [22]: Dde
inhibition [23]: Active
Activity [24]: Toxic
Activity [25]: Active
